Our source for the melting point values is a melting point compilation (Tetko et al.; mined from patent text by program, amines drawn as free bases though some values may be those of a salt).

A value given as a limit tells only on which side of the number the result lay.

Consider `Cn1c(=O)n(CCCC(NS(=O)(=O)c2ccc(-c3ccc(Cl)cc3)cc2)C(=O)O)c(=O)c2ccccc21` (stereo unspecified), for which the melting point (as a rule, the temperature, or range, at which the solid turns liquid) lay in the range of 188 to 191 °C.

`CCOc1cccc(C(O)c2ncccc2OC)c1` (stereo unspecified) displayed a melting point of 104 to 106 °C.

In the case of `COc1cc(C=O)ccc1OCc1nc(-c2ccccc2)sc1C`, the melting point fell in the range of 133 to 134 °C.

`CCOC(=O)c1[nH]c2ccc(C[C@H]3COC(=O)N3)cc2c1CCN(C)C` displayed a melting point of 49 to 55 °C.

As for `CN(O)C(=O)C(=Cc1ccc2ccccc2c1)c1ccc(Br)cc1`, the melting point was in the range of 118 to 120 °C.

Compound `COc1ccc2c(c1)C(C(=O)Nc1ccc(C(C)C)cc1)CCC2` (stereo unspecified) yielded a melting point of 168 to 169 °C.

`CN1N=C2C(=Cc3ccccc3)CNCC2C1c1ccccc1` (stereo unspecified) came in with a melting point of 115 to 117 °C.

As to `Cn1cc(C(=O)CCN2CCCCC2)cc1C(=O)c1cccc2ccccc12`, the melting point was in the range of 141 to 143 °C.

Turning to `O=C(O)c1cc(Br)cc2c1NCCS2`, the melting point is 205 to 206 °C.

`CC1=C(C)CCCCCC1` came in with a melting point of 63 to 64 °C.

`Cn1ncc2c1-c1c(Cc3ccccc3)sc(C(=O)O)c1CC2` displayed a melting point above 300 °C.

The compound `COC(=O)c1ccc2c(c1)C(CNC(=O)OC(C)(C)C)CCC2` (stereo unspecified) yielded a melting point of 72 to 80 °C.

For the compound `COC(=O)ON1C(=O)c2ccccc2C1=O`, the melting point was in the range of 129 to 135 °C.

The compound `Cn1c(CCCCl)nc2ccc3ccccc3c21` returned a melting point of 246 to 248 °C.

In turn, `Cc1oc(-c2ccc(C(F)(F)F)cc2)cc1C(=O)Nc1cccc(C=O)c1` returned a melting point of 183 to 184 °C.

Regarding `CC(C)(C)c1nn(-c2c(Cl)cc(C(F)(F)F)cc2Cl)c(N)c1Br`, the melting point was 228 to 231 °C.

For `OCC1Oc2cccc(F)c2OC1CO` (stereo unspecified), the melting point lay within 122 to 124 °C.

The compound `CN(C)CC(=O)Nc1cccc2c1C(=O)c1c(NC(=O)CN(C)C)cccc1C2=O` yielded a melting point of 194 to 195 °C.

For the compound `CCCCCCCCOC(=O)c1cnc(C(=O)O)cn1`, the melting point lay in the range of 142 to 143 °C.

Compound `O=C(N[C@H](Cc1ccc(CC(F)(F)C(F)(F)F)cc1)[C@@H](O)c1cccc(Cl)c1)c1cccc2c(Cl)cccc12` (racemic) had a melting point of 216 to 217 °C.

Compound `Cc1ccc(S(=O)(=O)N2CCCC2c2ccc(Cl)c(C)c2)cc1` (racemic) registered a melting point of 103 °C.

Consider `CCCCCN1C(=O)C(NC(=O)C2CCc3ccccc3C2)c2ccccc21` (stereo unspecified), for which the melting point lay in the range of 127 to 132 °C.

Compound `CCOC(=O)c1c(C#N)c2c(c3[nH]c4ccccc4c13)CCC2` yielded a melting point of 229 to 231 °C.

`COc1cc(CC(=O)O)cc2c1C(=O)c1ccccc1CC2` showed a melting point of 189 to 199 °C.

The compound `COc1ccc(CN2C(=O)C(c3cc4c(C)noc4cc3O)c3ccccc32)cc1` (stereo unspecified) had a melting point of 195 to 197 °C.

Compound `COc1cc(-c2nn(C(C)(C)C)c(N)c2C(N)=O)cc(OC)c1OC` gave a melting point of 180 to 192 °C.

In turn, `N=C(NC(=O)c1cccc2ccccc12)N1CC(c2ccccc2)C(c2ccc(Cl)cc2)=N1` (stereo unspecified) came in with a melting point of 206 to 207 °C.

`Nc1nccc(Oc2ccc3c(C(=O)Nc4cccc(C(F)(F)F)c4)cnn3c2)n1`: the melting point fell in the range of 102 to 104 °C.

Compound `COc1cc(Nc2nccc(-c3ccc4c(c3)CCCC4)n2)cc(OC)c1OC` yielded a melting point of 150 to 151 °C.

As to `CNC(=O)Cc1c(-c2ccccc2)nn2cccnc12`, the melting point is 211 to 213 °C.

Turning to `Cc1cc(C(=O)Nc2ccc(Cl)nc2)ccc1[N+](=O)[O-]`, the melting point was 290 °C.

As for `CCc1cc(OCC(=O)O)c(C)cc1SCc1sc(-c2ccc(C(F)(F)F)cc2)nc1C`, the melting point was 169 to 171 °C.

The compound `CNC(Cc1ccccc1N)C(=O)c1ccc(OC)c(OC)c1` (stereo unspecified) registered a melting point of 128 to 131 °C.

Take `CC(=O)NC[C@H]1CN(c2ccc(C(=O)c3cnc4ccccn34)cc2)C(=O)O1`: the melting point lay in the range of 218 to 220 °C.

On to `CS(=O)(=O)O[C@@H](CO)[C@H](Cc1ccccc1)NC(=O)OCc1ccccc1`, for which the melting point lay within 121 to 122 °C.

In turn, `COc1cccc(N2CCN(C[C@H]3COc4ccc5nc(C)ccc5c4O3)CC2)c1` came in with a melting point of 90 to 91 °C.

The compound `CC1(C)CCc2cc(OCc3ccccc3)c(O)c([N+](=O)[O-])c2C1=O` came in with a melting point of 146 to 149 °C.

For the compound `NNc1nccc(-c2cccc(C(F)(F)F)c2)n1`, the melting point fell in the range of 103 to 106 °C.

`COc1ccc2c(c1)CCC(=O)NC2c1ccccc1` (stereo unspecified) showed a melting point of 185 to 186 °C.

`CC(C)(C)c1cc(C(C)(C)C)c2oc(N)c(-c3ccccc3)c2c1` showed a melting point of 174 to 178 °C.

In the case of `CCC1(CCCCN2CCN(c3ccc(F)c(Cl)c3)CC2)C(=O)Nc2ccccc21` (stereo unspecified), the melting point was 121 to 124 °C.

In the case of `CCN(c1ccc(C(=O)O)nn1)C(C)c1cc(Br)ccc1OCc1ccccc1` (stereo unspecified), the melting point is 129 °C.

In turn, `O=C1C(Br)=CC(Br)(Br)C=C1Br` had a melting point of 123 to 127 °C.

On to `CC(C)Cc1ccc(C(C)C(=O)Oc2ccc([N+](=O)[O-])cc2)cc1` (stereo unspecified), for which the melting point fell in the range of 156 to 162 °C.

On to `CC(C)(C)OC(=O)NC(CC#N)COc1noc2ccc(Cl)cc12` (stereo unspecified), for which the melting point lay within 147 to 148 °C.

Take `CSc1nc(N)c(N)c(=O)n1C`: the melting point lay within 211 to 212 °C.

`CC1=NCC2CC(=O)N(c3ccccc3)c3cc(Cl)ccc3N12` (stereo unspecified) had a melting point of 248 to 251 °C.

Take `O=C(O)C1C=COc2cc(Cl)c(Cl)cc21` (stereo unspecified): the melting point was 114 to 117 °C.

`c1csc(-c2nc(CCOc3ccc(CCCn4ccnc4)cc3)co2)c1` showed a melting point of 77 to 78 °C.

Regarding `CC(C#N)c1ccc2oc(-c3ccccc3)nc2c1` (stereo unspecified), the melting point was 118 to 120 °C.

Compound `COc1ccc(C(=O)CC(C)(C)C(=O)O)c2c1OC(C)(C)C2` registered a melting point of 159 to 160 °C.

On to `COC(=O)CCCCCCCCCCCCC1=C(C)C(=O)C(OC)=C(OC)C1=O`, for which the melting point was found to be 54 °C.

Regarding `CCOC(=O)C1=C(COCC2=CC(=O)N=N2)NC(C)=C(C(=O)OC)C1c1ccccc1Cl` (stereo unspecified), the melting point was determined as 207 °C.

`CCc1ccc2c(c1)C(=O)N(CCCCN1CCC(n3c(=O)oc4ccccc43)CC1)S2(=O)=O` came in with a melting point of 165 to 168 °C.

Turning to `COC(C1=CN(C)CS1)c1ccccc1COc1cc(Cl)ccc1Cl` (stereo unspecified), the melting point is 78.5 to 79.5 °C.

On to `Cc1c(Cl)nc2c(C=O)cnn2c1Cl`, for which the melting point fell in the range of 137 to 139 °C.

Turning to `O=C1CCCC(C(Sc2ccccc2)c2ccccc2)O1` (stereo unspecified), the melting point is 82 to 84 °C.

With `NC(=O)c1ccccc1-c1ccc2ccc(SCc3ccccc3)nc2n1`, the melting point is 144 to 145 °C.

`CCN(CC)c1ccc(-c2cc(-c3ccc(C(=O)O)cc3)ccc2CCCNC(C)(C)C)cc1C(C)(C)C` displayed a melting point of 273 °C.

Compound `O=C(OCC1CC1)c1ccc(OCCC2CCN(c3ccc(Cl)nn3)CC2)cc1` had a melting point of 134 °C.

As for `CCOC(=O)c1cn(-c2ccccn2)c2oc(CN3CCOCC3)cc2c1=O`, the melting point was 192 to 195 °C.

As for `CCC1CCC2C3CCC4CC(O)CCC4(C)C3C(N(C)C)CC12C` (stereo unspecified), the melting point was in the range of 147 to 150 °C.

The compound `Cc1cc(C23CC4CC(CC(C4)C2)C3)ccc1NC(=O)c1cc([N+](=O)[O-])ccc1Br` showed a melting point of 229 °C.

Turning to `CCOC(=O)Cc1ncc2c(n1)-c1ccc(Cl)cc1C(c1ccccc1F)=NC2`, the melting point lay in the range of 98 to 103 °C.

Regarding `C=CCc1c2n(c3ccccc13)C(=O)C(Cc1nc[nH]c1C)CC2` (stereo unspecified), the melting point fell in the range of 215 to 217 °C.

For `COc1ccc(NC(=O)CN2CCC(Cc3ccccc3)CC2)cc1`, the melting point lay in the range of 81 to 83 °C.

In turn, `O=C(CCC(=O)N1CCC[C@H]1C(=O)O)c1ccc(F)cc1` displayed a melting point of 127 to 129 °C.

Regarding `CCOC(=O)c1cn(CC)c2nc(N3CCN(C)CC3)ccc2c1=O`, the melting point turned out to be 130 °C.

For `NC(=O)N(O)Cc1ccoc1`, the melting point lay in the range of 125 to 128 °C.

The compound `O=c1cc(-c2ccccc2)oc2ccc(OCCCCCN3CCC(O)CC3)cc12` returned a melting point of 128 to 129 °C.

The compound `c1ccc(-c2cnc3cc4ccccc4cc3n2)cc1` came in with a melting point of 163 °C.

In turn, `O=C(CNc1c(C(=O)O)[nH]c2cc(F)ccc12)c1ccccc1` gave a melting point of 142 to 143 °C.

Compound `CCN1CC(=O)N(c2ccc(Cl)cc2Cl)C1=S` gave a melting point of 144 to 146 °C.

`Cc1ncn(C)c1[N+](=O)[O-]` showed a melting point of 45 °C.

Turning to `NCc1cccc(CNC(N)=O)c1`, the melting point fell in the range of 127 to 129 °C.

The compound `O=C(O)CCC1CCCC2CC(=O)NC12` (stereo unspecified) had a melting point of 180 to 181 °C.

In turn, `CSc1ccc(CN2C(=O)C3(COc4cc5c(cc43)OCO5)c3ccccc32)cc1` (stereo unspecified) had a melting point of 128 to 130 °C.

On to `CC(C)(C(=O)O)C1(Br)OC2=CC=CC2=CC1c1ccccc1` (stereo unspecified), for which the melting point fell in the range of 183 to 196 °C.

`CC(C)CC(=O)Nc1cncc(-c2ccnc3c(C(=O)c4cccs4)cnn23)c1`: the melting point lay in the range of 217 to 219 °C.

As to `c1ccc(Cn2ccc3nnc4ccccc4c32)cc1`, the melting point was in the range of 190 to 192 °C.

The compound `COC(=O)c1sccc1S(=O)(=O)NC(=O)Nc1nc(OC)cc(OC)n1` registered a melting point of 191 to 193 °C.

In the case of `COc1cc2c(Nc3ccc(Sc4nccn4C)c(Cl)c3)c(C#N)cnc2cc1/C=C/CCO`, the melting point lay in the range of 273 to 278 °C.

`Cc1nc(-c2ccc3c(c2)CCCC3)c(CO)o1` registered a melting point of 132 to 133 °C.

In the case of `COc1cc(OCCN2C3C=C(c4ccc5ccccc5c4)CC2CC3)c2ncccc2c1` (stereo unspecified), the melting point lay within 100 to 103 °C.

The compound `CC(=O)Oc1ccc(C(=O)N2CCNC2=O)cc1OC(C)=O` gave a melting point of 154 to 156 °C.

Compound `CC(=O)OCCOC(=O)C1=C(C)NC(C)=C(C(=O)CS(=O)(=O)NC(C)C)C1c1cccc([N+](=O)[O-])c1` (stereo unspecified) came in with a melting point of 133 to 136 °C.

`Cc1nc(-c2cc3cccc(NS(=O)(=O)c4cccs4)c3[nH]2)sc1C` registered a melting point of 210 to 211 °C.

`CCCCCCCCCCCCCCOc1ccc(CN(Cc2ccccn2)S(C)(=O)=O)cc1` displayed a melting point of 62 to 63 °C.

With `CCCc1nc(NCCOC(N)=O)nc(N2CCOCC2)n1`, the melting point was 139 to 140 °C.

Take `NC(=O)COCCOCCN1CCC(=C(c2ccccc2)c2ccccc2)CC1`: the melting point lay in the range of 51 to 53 °C.

In turn, `C=CCC(Cc1ccc([N+](=O)[O-])cc1)NC(=O)OCc1ccccc1` (stereo unspecified) gave a melting point of 94 to 95 °C.
